Assay results from patent US20170166870A1, “HUMAN HEPATIC 3D CO-CULTURE MODEL AND USES THEREOF” (Vrije Universiteit Brussel, priority 2014, published 2017).

What was measured:
[1] = system: 3D HepaRG/HSC co-culture; experiment: Single and repeated exposure, cell viability (% ATP), serum-free medium; assay type: cell-based, human; conditions: Homo sapiens, HepaRG, serum-free medium
Procedure: Culture medium. Day 0 cells were resuspended in HepaRG thawing medium and from day 1 to 21 cells were kept in the HepaRG culture medium 0% DMSO, until day 8. For the repeated versus single compound exposure assays, on day 8, the HepaRG culture medium 0% DMSO was replaced by the Serum-free HepaRG maintenance medium described in Klein et. al. 2013 (HepaRG Induction/Toxicity medium, DMSO 0.5% (v/v), 2 μg/ml of epidermal growth factor and 10 μg/ml of hepatocyte growth factor) and kept in this medium until the end of culture.
Single and repeated exposure. For the single and repeated compound exposure cell spheroids (3D HepaRG/HSC, 3D HepaRG and 3D HSC) were exposed respectively on day 20 for 24 h or every second day from day 8 to day 21 in serum-free medium with no additional solvent. Cells were exposed to a range of 8 concentrations between 0.5 and 80 mM for APAP single-dose, 0.125 and 40 mM for APAP repeated-dose, 0.3 and 500 μM Allyl Alcohol (AA, Sigma-Aldrich), 1.9 and 1000 μM Methotrexate (MTX, Pfizer, NY, USA). For the recovery assay, on day 21, cells were washed using serum-free medium and kept for 3 extra days.
Cell viability assay was performed by measuring ATP production upon individual spheroid exposure to the different concentrations of the test compound. Cell spheroids were lysed individually for viability analysis using the Cell titer Glo kit (Promega) following the instructions of the manufacturer. Luminescence values were converted into percentage of ATP by comparison with controls and converted into dose-response curves using Prism 5 software.

[2] = system: 3D HepaRG mono-culture; experiment: Pro-collagen measurement in culture supernatant (Type I C-Peptide); assay type: cell-based, human; conditions: upon APAP incubation, 24 h
Procedure: (§1) Samples for pro-collagen measurement were five times concentrated using 10 kD Vivaspin 500 ultrafiltration columns (VWR, Radnor, Pa.), the resulting supernatant was analysed for the presence of Type I C-Peptide using the TAKARA (Chanteloup-en-Brie, France) kit.

[3] = system: 3D HepaRG/HSC co-culture; experiment: as above; assay type: cell-based, human; conditions: upon APAP incubation, 24 h
Procedure: as §1

[4] = system: 3D HepaRG/HSC co-culture; experiment: APAP toxicity assay, cell viability by ATP (Cell titer Glo); assay type: cell-based, human; conditions: Homo sapiens, 3D HepaRG/HSC, current study, 0% DMSO, read-out: APAP EC50 values (±stdev)
Procedure: APAP toxicity assay was performed in 3D HepaRG/co-culture as well as in 3D HepaRG monoculture. […] For some experiments the culture medium was supplemented with 2.5 mM valproic acid (VPA sodium salt, Sigma-Aldrich) or with cytokine mixture (Raicevic et al.,2012)-interleukin (IL)-1β 25 ng/mL (Peprotech, Rocky Hill, N.J., USA), interferon (IFN)-γ 10^3 U/mL, tumor necrosis factor (TNF)-a 50 ng/mL, and IFN-α 3·10^3 U/mL (all from Prospec, Inc., East Brunswick, N.J., USA). For the recovery assay, at the end of APAP incubation, cells were washed using HepaRG culture 0% DMSO medium and kept in the same medium for 3 more days.
At the end of the incubation period, 5 spheroids per condition were pooled and lysed for RNA analyses, while the remaining spheroids per condition were lysed individually for viability analysis using the Cell titer Glo kit (Promega) for ATP measurements following the instructions of the manufacturer.

[5] = system: hepatic stellate cells isolated from mice; experiment: Acute and chronic APAP liver injury model, HSC activation markers and collagen deposition; assay type: in vivo, mouse
Excerpt: Male balbC and C57BL/6 mice were used for all experiments; animals were housed in a controlled environment with free access to chow and water. The experimental protocol was approved by the institutional Animal Care and Use Committee of Vrije Universiteit Brussel, permit number 14-212-2, and National Institutes of Health principles of laboratory animal care (NIH publication 86-23, revised 1995) were followed. Acute and chronic models for liver fibrosis were used on mice of age 7-8 weeks. Acute injury was induced by a single dose of Acetaminophen (APAP) of 50; 150; 300 or 500 mg APAP/kg weight. Chronic injury was induced by repeated injections of APAP twice per week for 4 weeks. Hepatic stellate cells were collected at the end of the treatment. Isolation of stellate cells was done using FACS, based on UV-positivity. After isolation cells were not cultured, but immediately used for mRNA analysis. […] For quantitative real-time polymerase chain reaction (qPCR), GoTaq QPCR Master Mix with BRYTE green (Promega, Madison, Wis.) was used, subjected to qPCR in a 7500 real time PCR system and analysed using System SDS software v2.0.5 (Applied Biosystems), using GAPDH for normalisation. Reliability of GAPDH as house-keeping gene was determined using Normfinder (Andersen et al., 2004; Cancer Res 64(15): 5245-5250) to produce the ΔCT values. […]

Question: What does the source list for `CC(=O)Nc1ccc(O)cc1` [APAP, Acetaminophen]?
Answer: EC50 ([1]; repeated exposure, day 8 to day 21): 2.25 ± 0.35 mM; EC50 ([1]; single exposure, 24 h on day 20): 10.4 ± 2.3 mM; collagen secretion (C-terminal pro-collagen in supernatant) [2]: not observed; collagen secretion (C-terminal pro-collagen in supernatant) [3]: significant increase of collagen secretion; EC50 ([4]; 144 h, Day 6/7): 10 ± 1.09 mM; EC50 ([4]; 504 h, Day 21/22): 8 ± 4.17 mM; activation marker gene expression in isolated HSC ([5]; acute and chronic exposure, doses equal or higher than 300 mg/kg weight): significantly increase of the activation marker gene expression; fibrosis profile at the protein level (collagen) ([5]; chronic exposure (4 weeks)): deposition of collagen around the portal area with septa formation
